Where a SMILES comes first, the peptide text is derived from it. Where no end group is shown, it is not given here.
How the values were obtained:
[1] = tested on: MN-11 (Murine fibrosarcoma); test: MTT cytotoxicity, MN-11; format: cell-based; settings: MN-11, 24 hours incubation
Description: (§1) The MTT assay is a colorimetric method for measuring the activity of enzymes in living cells that reduces Thiazolyl blue tetrazolium bromide (MTT) to formazan dyes showing a purple color. In this embodiment, a colorimetric 3-(4.5-dimethylthiazol-2-yl)-2.5-diphenyltetrazodium bromide (MTT) viability assay was used to assess the in vitro cytotoxicity of oncolytic peptides.
(§2) The half inhibition concentration (IC50) is the concentration required by the oncolytic peptides to reach fifty percent inhibition. In one embodiment, the oncolytic peptides were used for IC50 test via MTT colorimetric assay.
(§3) Human lung cancer lines PC9 and A549 and murine pancreatic cancer cell line Panc02 were cultured in RPMI medium supplemented with 10% fetal bovine serum and antibiotic in this embodiment. Additionally, murine hepatoma cell line Hepa 1-6, murine melanoma cell line B16-F10, murine fibrosarcoma cell line MN-11, murine mammary cancer cell line E0771 and human diploid fibroblast (HFW) were cultured in DMEM medium supplemented with 10% fetal bovine serum and antibiotic. Cells were cultured in a humidified incubator containing 5% CO2 at 37° C.
(§4) All cancer cell lines were seeded in a 96-well plate with a concentration of 5000-8000 cells/100 μl/well and incubated for 24 hrs. After medium was removed, 100 μl fresh medium containing peptide (ranging from 50 μM to 0.8 μM) was added to the wells. Following 24 hours incubation, fresh medium with MTT (0.5 mg/ml) was replaced and incubated for 3 hours. After medium/MTT was removed, DMSO was added at 100 μl for dissolving the formazan crystal. Cell survival rate was calculated by measuring the absorbance at 540 nm using a Multi-labeled Microplate Reader (Sunrise™, TECAN).

[2] = tested on: PC9 (Human non-small cell lung cancer cell); test: MTT cytotoxicity, PC9; format: cell-based; settings: PC9, 24 hours incubation
Description: as §1, §2, §3, §4

[3] = tested on: EO771 (Murine mammary adenocarcinoma); test: MTT cytotoxicity, EO771; format: cell-based; settings: EO771, 24 hours incubation
Description: as §1, §2, §3, §4

Panc02 = test: MTT cytotoxicity, Panc02; format: cell-based, murine; settings: Panc02, 24 hours incubation
Description: as §1, §2, §3, §4

[4] = tested on: NCI-N87 (Human gastric carcinoma); test: MTT cytotoxicity, NCI-N87; format: cell-based; settings: NCI-N87, 24 hours incubation
Description: as §1, §2, §4

[5] = tested on: B16-F10 (Murine skin malignant melanoma); test: MTT cytotoxicity, B16-F10; format: cell-based; settings: B16-F10, 24 hours incubation
Description: as §1, §2, §3, §4

HFW (Human fibroblast) = test: MTT cytotoxicity, HFW; format: cell-based; settings: 24 hours incubation
Description: as §1, §2, §3, §4

[6] = Peptide stability in serum; format: in vitro ADME; settings: 25% (vol/vol) bovine calf serum
Description: Since this kind of peptide is highly toxic, the hope is that the peptide can be decomposed after inducing cancer cells to release danger-associated molecular patterns (DAMPs), and will not stay in the body for too long. After exposure to 25% (vol/vol) bovine calf serum, the residues of peptides were analyzed by liquid chromatography, and the stability at different time points was calculated.

[7] = tested on: A375 (human malignant melanoma); test: MTT cytotoxicity, A375; format: cell-based; settings: A375, 24 hours incubation
Description: as §1, §2, §4

[8] = tested on: A549 (Human non-small cell lung cancer cell); test: MTT cytotoxicity, A549; format: cell-based; settings: A549, 24 hours incubation
Description: as §1, §2, §3, §4

[9] = tested on: HUVEC (Human Umbilical Vein Endothelial (Cell)); test: MTT cytotoxicity, HUVEC; format: cell-based; settings: 24 hours incubation
Description: as §1, §2, §4

[10] = tested on: C9 (Human oral cancer cell); test: MTT cytotoxicity, C9; format: cell-based; settings: C9, 24 hours incubation
Description: as §1, §2, §4

[11] = tested on: HCT-15 (Human colorectal cancer); test: MTT cytotoxicity, HCT-15; format: cell-based; settings: HCT-15, 24 hours incubation
Description: as §1, §2, §4

[12] = tested on: Hepa I-6 (Murine hepatocellular carcinoma); test: MTT cytotoxicity, Hepa 1-6; format: cell-based; settings: Hepa I-6, 24 hours incubation
Description: as §1, §2, §3, §4

[13] = tested on: OECM-1 (Human oral cancer cell); test: MTT cytotoxicity, OECM-1; format: cell-based; settings: OECM-1, 24 hours incubation
Description: as §1, §2, §4

[14] = tested on: SAS (Human tongue carcinoma); test: MTT cytotoxicity, SAS; format: cell-based; settings: 24 hours incubation
Description: as §1, §2, §4

[15] = tested on: HepG2 Cancer Cells (Human hepatocellular carcinoma); test: MTT cytotoxicity, HepG2; format: cell-based; settings: HepG2, 24 hours incubation
Description: as §1, §2, §4

RBC (Human blood cell) = test: Cytotoxicity, RBC; format: cell-based
Description: as §2

[16] = read-out: Serum stability (residual peptide)

Molecule	IC50 [1] [µM]	IC50 [2] [µM]	IC50 [3] [µM]	IC50 (Panc02) [µM]	IC50 [4] [µM]	IC50 [5] [µM]	IC50 (HFW (Human fibroblast)) [µM]	Serum stability (residual peptide) ([6]; 0 hr) [%]	remaining at 0.5 h [6, 16] [%]	remaining at 2 h [6, 16] [%]	remaining at 4 h [6, 16] [%]	remaining at 6 h [6, 16] [%]	remaining at 8 h [6, 16] [%]	IC50 [7] [µM]	IC50 [8] [µM]	IC50 [9] [µM]	IC50 [10] [µM]	IC50 [11] [µM]	IC50 [12] [µM]	IC50 [13] [µM]	other results
CC(C)C[C@H](NC(=O)[C@H](Cc1ccc2ccccc2c1)NC(=O)[C@H](CCCCN)NC(=O)[C@H](CC(C)C)NC(=O)[C@H](Cc1c[nH]c2ccccc12)NC(=O)[C@H](CCCCN)NC(=O)[C@H](CCCNC(=N)N)NC(=O)[C@H](Cc1c[nH]c2ccccc12)NC(=O)[C@H](CCCCN)NC(=O)[C@H](CCCCN)NC(=O)[C@H](CCCNC(=N)N)NC(=O)[C@H](CCCNC(=N)N)NC(=O)[C@H](CCCCN)NC(=O)[C@H](CCCCN)NC(=O)[C@H](CCCCN)NC(=O)[C@@H](N)CCCCN)C(=O)N[C@@H](C)C(=O)N[C@@H](CCCCN)C(=O)N[C@@H](CCCCN)C(N)=O [SEQ ID NO: 8, KKKK-RR-KK-WRK-WLK-Nal-LA-KK-NH2] (HELM PEPTIDE1{K.K.K.K.R.R.K.K.W.R.K.W.L.K.[O=C([C@H](Cc1ccc2ccccc2c1)N[*:1])[*:2]].L.A.K.K.[am]}$$$$V2.0; N-terminus assumed)	3.49	1.58	3.3	2.66	3.16	9.73	7.29	100.00	105	106	70.4	71.3	66.5	3.59	2.3	5.6	5.3	3.16	3.59	5.97	remaining at 1 h ([6]; 1 hr, read-out: Serum stability (residual peptide)): 77.4%; IC50 [14]: 3.98 µM; IC50 [15]: 8.18 µM; IC50 (RBC (Human blood cell)): 37.6 µM
KKKKRRKKWRKWLKWLAKK-NH2 [SEQ ID NO: 7, KKKK-RR-KK-WRK-WLK-WLA-KK-NH2]	5.73	2.93	6.16	10.6	6.16	15.3	12	100.00	101	72.1	59.5	54.4	44.4	4.01	3.3	3.95	9.06	7.13	4.92	10.2	Serum stability (residual peptide) ([6]; 1 hr): 123.30%; metabolised at 8 h ([6]; after eight hours, read-out: Decrease of peptide in serum): ~56%; metabolised at 4 h ([6]; at the fourth hour, read-out: Decrease of peptide in serum): ~40%; IC50 [14]: 7.67 µM; IC50 [15]: 12.1 µM; IC50 (RBC (Human blood cell)): 50.5 µM

Source: patent US20250250298A1, “ONCOLYTIC PEPTIDE AND USE THEREOF” (Rise Biopharmaceuticals Inc., priority 2022, published 2025)
